# From PMC11435058, “Synthesis of New Thiazole-Privileged Chalcones as Tubulin Polymerization Inhibitors with Potential Anticancer Activities” (Pharmaceuticals, 2024)
# Experiments:
# [1] = system: OVCAR-5; assay: NCI-60 anticancer screen (SRB; single dose and five doses); settings: Homo sapiens, OVCAR-5, 48 h, read-out: Growth Percentage
# [2] = system: HT29; assay: as above; settings: Homo sapiens, HT-29, 48 h, read-out: Growth Percentage
# [3] = system: HOP-62; assay: as above; settings: Homo sapiens, HOP-62, 48 h, read-out: Growth Percentage
# [4] = system: SK-OV-3; assay: as above; settings: Homo sapiens, SK-OV-3, 48 h, read-out: Growth Percentage
# [5] = system: HCC-2998; assay: as above; settings: Homo sapiens, HCC 2998, 48 h, read-out: Growth Percentage
# [6] = system: SF-539; assay: as above; settings: Homo sapiens, SF-539, 48 h, read-out: Growth Percentage
# [7] = system: MCF7; assay: as above; settings: Homo sapiens, MCF7, 48 h, read-out: Growth Percentage
# [8] = system: NCI-H23; assay: as above; settings: Homo sapiens, NCI-H23, 48 h, read-out: Growth Percentage
# [9] = system: HS 578T; assay: as above; settings: Homo sapiens, 48 h, read-out: Growth Percentage
# [10] = system: MDA-MB-435; assay: as above; settings: Homo sapiens, MDA-MB-435, 48 h, read-out: Growth Percentage
# [11] = system: SF-295; assay: as above; settings: Homo sapiens, SF-295, 48 h, read-out: Growth Percentage
# [12] = system: MDA-MB-231/ATCC; assay: as above; settings: Homo sapiens, MDA-MB-231, 48 h, read-out: Growth Percentage
# [13] = system: TK-10; assay: as above; settings: Homo sapiens, TK-10, 48 h, read-out: Growth Percentage
# [14] = system: RPMI-8226; assay: as above; settings: Homo sapiens, RPMI-8226, 48 h, read-out: Growth Percentage
# [15] = system: SR; assay: as above; settings: Homo sapiens, 48 h, read-out: Growth Percentage
# [16] = system: IGROV1; assay: as above; settings: Homo sapiens, IGROV-1, 48 h, read-out: Growth Percentage
# [17] = system: OVCAR-8; assay: as above; settings: Homo sapiens, OVCAR-8, 48 h, read-out: Growth Percentage
# [18] = system: EKVX; assay: as above; settings: Homo sapiens, 48 h, read-out: Growth Percentage
# [19] = system: SNB-19; assay: cells; settings: Homo sapiens, SNB-19, 48 h, read-out: Growth Percentage
# [20] = system: NCI/ADR-RES; assay: NCI-60 anticancer screen (SRB; single dose and five doses); settings: Homo sapiens, 48 h, read-out: Growth Percentage
# [21] = system: HCT-116; assay: as above; settings: Homo sapiens, HCT-116, 48 h, read-out: Growth Percentage
# [22] = system: OVCAR-4; assay: as above; settings: Homo sapiens, OVCAR-4, 48 h, read-out: Growth Percentage
# [23] = system: CAKI-1; assay: as above; settings: Homo sapiens, CAKI-1, 48 h, read-out: Growth Percentage
# [24] = system: DU-145; assay: as above; settings: Homo sapiens, DU-145, 48 h, read-out: Growth Percentage
# [25] = system: SK-MEL-5; assay: as above; settings: Homo sapiens, SK-MEL-5, 48 h, read-out: Growth Percentage
# [26] = system: CCRF-CEM; assay: NCI-60 anticancer screen (SRB; single dose 10 μM and five doses); settings: Homo sapiens, 48 h, read-out: Growth Percentage
# [27] = system: UO-31; assay: NCI-60 anticancer screen (SRB; single dose and five doses); settings: Homo sapiens, UO-31, 48 h, read-out: Growth Percentage
# [28] = system: LOX IMVI; assay: as above; settings: Homo sapiens, 48 h, read-out: Growth Percentage
# [29] = system: KM12; assay: as above; settings: Homo sapiens, KM12, 48 h, read-out: Growth Percentage
Structure (SMILES),activity at 10 µM [1] [%],activity at 10 µM [2] [%],activity at 10 µM [3] [%],activity at 10 µM [4] [%],activity at 10 µM [5] [%],activity at 10 µM [6] [%],activity at 10 µM [7] [%],activity at 10 µM [8] [%],activity at 10 µM [9] [%],activity at 10 µM [10] [%],activity at 10 µM [11] [%],activity at 10 µM [12] [%],activity at 10 µM [13] [%],activity at 10 µM [14] [%],activity at 10 µM [15] [%],activity at 10 µM [16] [%],activity at 10 µM [17] [%],activity at 10 µM [18] [%],activity at 10 µM [19] [%],activity at 10 µM [20] [%],further results
"Cc1ccc(/C=C/C(=O)c2sc(=S)[nH]c2C)cc1 [2j, (E)-1-(4-Methyl-2-Thioxo-2,3-Dihydrothiazol-5-yl)-3-(p-Tolyl)Prop-2-En-1-One]",138,98.7,54.1,102,77.2,43,28.3,68.5,101,39,83.4,71.7,79.8,18.9,45.5,83.4,17.3,55.5,65.5,31,activity at 10 µM [21]: 46.7%; activity at 10 µM [22]: 59.2%; activity at 10 µM [23]: 43.4%; activity at 10 µM [24]: 54.6%; activity at 10 µM [25]: 56.1%; activity at 10 µM [26]: 24.6%; activity at 10 µM [27]: 46.8%; activity at 10 µM [28]: 31.2%; activity at 10 µM [29]: 29.8%
"Cc1[nH]c(=S)sc1C(=O)/C=C/c1ccc(N(C)C)cc1 [2k, (E)-3-(4-(Dimethylamino)Phenyl)-1-(4-Methyl-2-Thioxo-2,3-Dihydrothiazol-5-yl)Prop-2-En-1-One]",142,94,86.2,92.6,95.3,88.7,60,71.1,118,58.4,79.8,90.3,86.8,41.5,57.4,82.3,83.4,67,71.2,56.9,activity at 10 µM [21]: 72.2%; activity at 10 µM [22]: 51.2%; activity at 10 µM [23]: 68.6%; activity at 10 µM [24]: 92.8%; activity at 10 µM [25]: 51.3%; activity at 10 µM [26]: 68.5%; activity at 10 µM [27]: 48.3%; activity at 10 µM [28]: 60.2%; activity at 10 µM [29]: 62.6%
